Assay results from patent publication US12187705B2, “Heteroaryl-triazole and heteroaryl-tetrazole compounds as pesticides” (Bayer Aktiengesellschaft, priority 2018, dated 2025).

Experiments:
Format in all cases: in vivo
Phaedon cochleariae = Phaedon cochleariae spray test; settings: foliar, 168 h, Chinese cabbage leaf disks, after 7 days
Procedure: Phaedon cochleariae—Spray Test
(§1) To produce a suitable preparation of active compound, 1 part by weight of active compound is mixed with the stated amount of solvents and is diluted with water, containing an emulsifier concentration of 1000 ppm, to the desired concentration. Further test concentrations are prepared by dilution with emulsifier containing water.
Chinese cabbage (Brassica pekinensis) leaf disks are sprayed with a preparation of the active ingredient of the desired concentration. Once dry, the leaf disks are infested with mustard beetle larvae (Phaedon cochleariae).
After 7 days mortality in % is determined. 100% means all beetle larvae have been killed and 0% means none of the beetle larvae have been killed.

Ctenocephalides felis [1] = assay: Ctenocephalides felis oral test; settings: Ctenocephalides felis, in Bos taurus, po, 48 h
Summary of the method: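 About 20 adult unfed fleas fed through parafilm on cattle blood containing compound (DMSO concentrate diluted in blood); blood held at 37° C., fleas at room temperature. Mortality in % scored after 2 days (100% = all killed).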

Diabrotica balteata = Diabrotica balteata spray test; settings: Diabrotica balteata, 168 h; 160 μg/well, wheat seeds, after 7 days; read-out: efficacy (seedlings grown)
Summary of the method: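 Wheat seeds germinated 1 day on agar were sprayed with compound diluted in water with 1000 ppm emulsifier, then infested with 10-20 Diabrotica balteata larvae. Efficacy in % scored after 7 days: 100% = seedlings grown as untreated, uninfected control; 0% = no seedlings grown.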

Nezara viridula = Nezara viridula spray test; settings: in Hordeum vulgare, 96 h
Summary of the method: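 Barley plants infested with stink bug larvae were sprayed with compound diluted in water containing 1000 ppm emulsifier. Mortality (%) was scored after 4 days, 100% meaning all bugs killed.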

Spodoptera frugiperda = Spodoptera frugiperda spray test; settings: in Zea mays, 168 h
Procedure: Spodoptera frugiperda—Spray Test
as §1
Maize (Zea mays) leaf sections are sprayed with a preparation of the active ingredient of the desired concentration. Once dry, the leaf sections are infested with fall armyworm larvae (Spodoptera frugiperda).
After 7 days mortality in % is determined. 100% means all caterpillars have been killed and 0% means none of the caterpillars have been killed.

Nilaparvata lugens = Nilaparvata lugens spray test; settings: Nilaparvata lugens, in Oryza sativa, 96 h
Procedure: Nilaparvata lugens—Spray Test
as §1
Rice plants (Oryza sativa) are sprayed with a preparation of the active ingredient of the desired concentration and the plants are infested with the brown planthopper (Nilaparvata lugens).
After 4 days mortality in % is determined. 100% means all planthoppers have been killed and 0% means none of the planthoppers have been killed.

Boophilus microplus = Boophilus microplus injection test; settings: Rhipicephalus microplus, 168 h, 20 μg/animal, egg deposition after 7 days, read-out: efficacy (infertile eggs)
Procedure: Boophilus microplus—Injection Test
Solvent: dimethyl sulfoxide
To produce a suitable preparation of active compound, 10 mg of active compound are dissolved in 0.5 ml solvent, and the concentrate is diluted with solvent to the desired concentration.
Five adult engorged female ticks (Boophilus microplus) are injected with 1 μl compound solution into the abdomen. The ticks are transferred into replica plates and incubated in a climate chamber.
After 7 days egg deposition of fertile eggs is monitored. Eggs where fertility is not visible are stored in a climate chamber till hatching after about 42 days. An efficacy of 100% means all eggs are infertile; 0% means all eggs are fertile.

Myzus persicae [2] = assay: Myzus persicae oral test; settings: 120 h
Summary of the method: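 Feeding test: compound diluted in water was combined with IPL41 insect medium (33%+15% sugar) under a parafilm seal. A mixed population of green peach aphids fed through the membrane. Mortality (%) was scored after 5 days.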

[3] = system: Culex quinquefasciatus strain P00; assay: Culex quinquefasciatus test (CULXFA surface treatment & contact assay); settings: 24 hours after contact, read-out: efficacy (mortality); for mortality at 4 mg/m2: surface concentration 4 mg/m^2, 30 minutes exposure; for mortality at 20 mg/m2: surface concentration 20 mg/m^2, 30 minutes exposure
Summary of the method: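 Compound dissolved in acetone (2 mg/ml) with 2000 ppm rapeseed oil methyl ester, applied to glazed tile and dried. Adult strain P00 mosquitoes exposed to the surface for 30 minutes. Percent mortality scored 24 hours after contact.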

[4] = system: Aedes aegypti strain MONHEIM; assay: Aedes aegypti test (AEDSAE surface treatment & contact assay); settings: 24 hours after contact, read-out: efficacy (mortality); for mortality at 4 mg/m2: surface concentration 4 mg/m^2, 30 minutes exposure; for mortality at 20 mg/m2: surface concentration 20 mg/m^2, 30 minutes exposure
Procedure: Aedes aegypti Test (AEDSAE Surface Treatment & Contact Assay)
(§2) Solvent: Aceton+2000 ppm rapeseed oil methyl ester (RME)
(§3) In order to produce a sufficient, active ingredient containing solution it is necessary to solve the test-compound in the solvent-mix (Acetone at 2 mg/ml/RME 2000 ppm). This solution is pipetted onto a glazed tile and after evaporation of the Acetone, adult mosquitoes of the species Aedes aegypti strain MONHEIM are placed onto the dried surface. The exposure time is 30 minutes.
(§4) Mortality in percent (%) is determined 24 hours after contact to the treated surface. 100% mortality means that all test-insects are dead, whereas 0% means that not a single insect died.

Myzus persicae [5] = assay: Myzus persicae spray test; settings: in Brassica rapa, foliar, 120 h
Procedure: Myzus persicae—Spray Test
as §1
Chinese cabbage (Brassica pekinensis) leaf disks infected with all instars of the green peach aphid (Myzus persicae), are sprayed with a preparation of the active ingredient of the desired concentration.
After 5 days mortality in % is determined. 100% means all aphids have been killed and 0% means none of the aphids have been killed.

Ctenocephalides felis [6] = assay: Ctenocephalides felis in-vitro contact test adult cat flea; settings: Ctenocephalides felis; 5 μg/cm^2 (=500 g/ha), after 48 hours; read-out: efficacy (fleas dead or moribund)
Summary of the method: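 Compound in acetone was coated on glass tube walls, giving 5 μg/cm^2 at 900 ppm. 5-10 adult cat fleas were held at room temperature for 48 h, then heat-challenged at 45-50° C. Fleas immotile or uncoordinated were scored dead/moribund, expressed as % efficacy.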

[7] = system: Musca domestica strain WHO-N; assay: Musca domestica test (MUSCDO surface treatment & contact assay); settings: 24 hours after contact, read-out: efficacy (mortality); for mortality at 20 mg/m2: surface concentration 20 mg/m^2, 30 minutes exposure
Procedure: Musca domestica Test (MUSCDO Surface Treatment & Contact Assay)
as §2
as §3, with “flies” for “mosquitoes”, “Musca domestica” for “Aedes aegypti”, “WHO-N” for “MONHEIM”
as §4

[8] = system: Anopheles funestus strain FUMOZ-R; assay: Anopheles funestus test (ANPHFU surface treatment & contact assay); settings: 24 hours after contact, read-out: efficacy (mortality)
Procedure: Anopheles funestus Test (ANPHFU Surface Treatment & Contact Assay)
as §2
as §3, with “Anopheles funestus” for “Aedes aegypti”, “FUMOZ-R (Hunt et al., Med Vet Entomol. 2005 September; 19(3):271-5)” for “MONHEIM”
as §4

[9] = surface concentration 4 mg/m^2, 30 minutes exposure

Compound | mortality at 500 g/ha (Phaedon cochleariae) [%] | mortality at 100 ppm (Ctenocephalides felis [1]) [%] | pest or weed control at 160 µg/disc, 160 µg/well (Diabrotica balteata) [%] | mortality at 500 g/ha (Nezara viridula) [%] | mortality at 500 g/ha (Spodoptera frugiperda) [%] | mortality at 500 g/ha (Nilaparvata lugens) [%] | pest or weed control at 0.02 mg (Boophilus microplus) [%] | mortality at 4 ppm (Myzus persicae [2]) [%] | mortality at 4 mg/m2 [3] [%] | mortality at 20 mg/m2 [3] [%] | mortality at 4 mg/m2 [4] [%] | mortality at 20 mg/m2 [4] [%] | mortality at 500 g/ha (Myzus persicae [5]) [%] | pest or weed control at 5 µg/cm2, 5 µg/cm2 (Ctenocephalides felis [6]) [%] | mortality at 20 mg/m2 [7] [%] | mortality at 4 mg/m2 [8, 9] [%] | mortality at 20 mg/m2 ([8]; surface concentration 20 mg/m^2, 30 minutes exposure) [%] | mortality at 4 mg/m2 [7, 9] [%]
CC(c1ncnn1-c1ncccn1)N(CC1CC1)C(=O)c1cc(-c2ccccc2)cc(C(F)(F)F)c1 (stereo not drawn) [Example I-010] | 100 | 100 | – | – | – | – | – | – | – | – | – | – | – | – | – | – | – | –
CC(c1ncnn1-c1ncccn1)N(CC1CC1)C(=O)c1cccc(Cl)c1Cl (stereo not drawn) [Example I-016] | 100 | – | 100 | 100 | – | – | – | – | – | – | – | – | – | – | – | – | – | –
CC(c1ncnn1-c1ncccn1)N(CC1CC1)C(=O)c1c(Cl)c(C(F)(F)F)nn1C (stereo not drawn) [Example I-026] | 100 | – | 100 | – | – | – | – | – | – | – | – | – | – | – | – | – | – | –
C[C@@H](NC(=O)c1cc(Cl)cc(S(=O)(=O)c2ccc(F)cc2)c1)c1ncnn1-c1ncccn1 [Example I-043] | – | 100 | 100 | 100 | 100 | 100 | 100 | 100 | 80 to 100 | 80 to 100 | 80 to 100 | 90 to 100 | 90 | 90 | 80 to 100 | – | – | –
C[C@@H](NC(=O)c1cc(Cl)cc(S(=O)(=O)C(F)(F)F)c1)c1ncnn1-c1ccc(C#N)cn1 [Example I-067] | – | 100 | 100 | 100 | 100 | – | 80 | 100 | 80 to 100 | 80 to 100 | 80 to 100 | 90 to 100 | – | 90 | 80 to 100 | – | – | –
C[C@@H](NC(=O)c1cc(Cl)cc(S(=O)(=O)C(F)(F)F)c1)c1ncnn1-c1ccccn1 [Example I-068] | – | 100 | 100 | 100 | 100 | – | 100 | 90 | 80 to 100 | 80 to 100 | 80 to 100 | 90 to 100 | – | 90 | 80 to 100 | 85 to 100 | 85 to 100 | 80 to 100
